Experimental data taken from EP2125023B1, “SOLUBLE FORMS OF INCLUSION COMPLEXES OF HISTONE DEACETYLASE INHIBITORS AND CYCLODEXTRINS, THEIR PREPARATION PROCESSES AND USES IN THE PHARMACEUTICAL FIELD” (Universita'Degli Studi di Roma "La Sapienza", priority 2007, dated 2008).

Assay: Solubility tests on SAHA in aqueous HPβCD solutions by UV spectrophotometry
Assay type: physicochemical
Details: for Concentration: dissolved SAHA in the filtered solution brought to 10 ml, by Lambert and Beer's law with mean ε; for Assorbance (AU): water, one week stirring at room temperature, filtered, brought to 10 ml, read at 240 nm
Method: Five aqueous solutions of SAHA in cyclodextrin were prepared, maintaining a constant amount of drug and gradually increasing the cyclodextrin concentraion.
Two mg of SAHA (0.0075 mmol) are weighed in five assay tubes and to each is added 1 ml of a solution of 2-hydroxypropyl-β-cyclodextrin (HPβCD) in double-distilled water; we started with a molar ratio of 1:1 corresponding to 0.0116 g of cyclodextrin, proceeding then with molar ratios of 1:2 corresponding to 0.0232 g, 1:3 corresponding to 0.035 g, 1:4 corresponding to 0.046, up to a final ratio of 1:5, corresponding to 0.058 g of cyclodextrin.
The tubes thus prepared and well sealed are left for one week under stirring in a mechanical stirrer at room temperature.
At the end of this period, the solutions are filtered with a 0.5 µm diameter membrane filter in five 10 ml round-bottomed flasks brought to volume with double-distilled water, and the spectrophotometric readings are taken at 240 nm.
From the mean value of ε calculated previously, and using Lambert and Beer's law, the millimolar concentrations of the five solutions can be calculated, as shown in the table.

For `O=C(CCCCCCC(=O)Nc1ccccc1)NO` [SAHA, suberoylanilide hydroxamic acid], the “Concentration” value (SAHA:HPβCD molar ratio 1:1) was 126 µM, the “Assorbance (AU)” value (SAHA:HPβCD molar ratio 1:1) was 1.6862 AU and the “Concentration” value (SAHA:HPβCD molar ratio 1:2) was 191 µM. For the same compound, the “Assorbance (AU)” value (SAHA:HPβCD molar ratio 1:2) was 2,5591 AU, the “Concentration” value (SAHA:HPβCD molar ratio 1:3) was 196 µM and the “Assorbance (AU)” value (SAHA:HPβCD molar ratio 1:3) was 2.6196 AU. The “Concentration” value (SAHA:HPβCD molar ratio 1:4) was 207 µM, the “Assorbance (AU)” value (SAHA:HPβCD molar ratio 1:4) was 2.7752 AU and the “Concentration” value (SAHA:HPβCD molar ratio 1:5) was 216 µM. The “Assorbance (AU)” value (SAHA:HPβCD molar ratio 1:5) was 2.8932 AU.
